The source of these data is patent US20260374782A1, “NEW COMPOUNDS, PROCESSES FOR PREPARING THE SAME AND THEIR USE AS DRUGS” (B&A ONCOMEDICAL, priority 2022, published 2026).

The experiment has as its target T1, NKCC1 (Homo sapiens, UniProt P55011).
T1 construct: endogenous in cells; host or cells: native HEK293 cells
T1 sequence (P55011 1-1212): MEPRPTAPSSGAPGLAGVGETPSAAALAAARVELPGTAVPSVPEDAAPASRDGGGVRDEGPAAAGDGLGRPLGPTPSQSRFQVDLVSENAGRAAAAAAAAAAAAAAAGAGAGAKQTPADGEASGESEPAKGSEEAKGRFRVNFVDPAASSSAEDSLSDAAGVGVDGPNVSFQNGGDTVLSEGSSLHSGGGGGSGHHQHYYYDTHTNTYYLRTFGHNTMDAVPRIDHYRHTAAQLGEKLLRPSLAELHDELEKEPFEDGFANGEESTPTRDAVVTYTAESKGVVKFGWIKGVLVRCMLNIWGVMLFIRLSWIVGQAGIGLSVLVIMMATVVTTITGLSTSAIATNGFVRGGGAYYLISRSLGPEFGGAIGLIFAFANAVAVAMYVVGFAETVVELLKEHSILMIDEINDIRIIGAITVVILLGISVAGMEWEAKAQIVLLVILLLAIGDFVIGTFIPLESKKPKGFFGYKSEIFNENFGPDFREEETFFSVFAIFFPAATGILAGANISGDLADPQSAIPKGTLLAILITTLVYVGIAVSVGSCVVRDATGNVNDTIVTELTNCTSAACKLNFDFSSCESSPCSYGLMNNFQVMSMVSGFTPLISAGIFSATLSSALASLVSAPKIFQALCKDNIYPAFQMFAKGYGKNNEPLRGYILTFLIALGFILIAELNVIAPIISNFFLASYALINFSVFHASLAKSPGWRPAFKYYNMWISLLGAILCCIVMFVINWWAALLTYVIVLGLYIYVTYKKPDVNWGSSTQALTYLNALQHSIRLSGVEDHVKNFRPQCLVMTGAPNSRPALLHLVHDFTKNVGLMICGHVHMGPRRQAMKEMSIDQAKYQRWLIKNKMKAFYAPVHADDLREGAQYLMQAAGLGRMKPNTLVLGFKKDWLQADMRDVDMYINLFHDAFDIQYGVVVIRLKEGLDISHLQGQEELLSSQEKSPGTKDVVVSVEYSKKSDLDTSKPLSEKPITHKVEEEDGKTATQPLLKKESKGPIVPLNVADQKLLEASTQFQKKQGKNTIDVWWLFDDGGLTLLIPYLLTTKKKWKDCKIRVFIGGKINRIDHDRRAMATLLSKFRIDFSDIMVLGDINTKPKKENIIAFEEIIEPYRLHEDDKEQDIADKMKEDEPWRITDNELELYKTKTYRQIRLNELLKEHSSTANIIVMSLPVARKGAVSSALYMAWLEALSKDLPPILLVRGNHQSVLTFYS
Briefly: NKCC1-mediated K+ influx (83Rb tracer uptake) in native HEK293 cells, hypertonic saline, 100 μM ouabain. Type of experiment: cell-based. To be noted: HEK293, no drug = 1000, 20 μM bumetanide = 0; for inhibition at 20 µM: read-out: NKCC1 mediated flux inhibition at 20 μM (%); for inhibition at 2 µM: read-out: NKCC1 mediated flux inhibition at 2 μM (%). An excerpt:
The compounds of the invention have been tested for evaluating their potency in inhibiting the NKCC1 channel. The test used is a cellular assay expressing the NKCC1 channel: HEK293 cells are human cells derived from embryonic kidney. The inhibitory activity of the compounds has been evaluated in measuring the modification of the potassium flux at 2 concentrations, as described hereafter in the biological protocol.
HEK293 cells are human cells derived from embryonic kidney. They express at their plasma membranes proteins that transport potassium (K^+). Among these proteins is the Na—K-2Cl cotransporter or NKCC1. This transporter contributes to 40-50% of K^+ influx into the cells. The remaining of K^+ transport is mediated by the Na^+/K^+-ATPase (also known as Na^+ pump or Na^+/K^+ pump), which also contributes some 40-50% of the influx basal flux of 5-10%, which is mainly due to K^+ channels (FIG. 1A). Thus, the HEK293 cell in culture is an ideal model to study the function of NKCC1 and test compounds that inhibits its transport.
The assay to measure NKCC1 function was optimized to obtain the next signal to noise ratio: • a. A slightly hypertonic saline was used to stimulate NKCC1 function. […] By consistent use of this simple manipulation, the NKCC1 signal was enhanced. • b. Ouabain, an inhibitor of the Na^+/K^+ pump, was used at 100 μM. […] A radioactive isotope was used to trace the inward movement of K^+ into the cell (influx). This allowed for highly precise measurements of K^+ influx. Because radioactive isotopes of K^+ had very short half-lives, radioactive isotopes of Rb^+ were used. Rubidium was a monovalent cation which was readily transporter at the K^+ binding site by many transporters and channels. Rb^+ was a congener of K^+, being transported undistinguishably from K^+. ^83Rb (half-life of 83 days) was used since ^86Rb (half-life of 19.6 days) is no longer commercially available. The ^83Rb isotope was used as a tracer, i.e. at a very low amounts to trace the movement of K^+.
K^+ influx measured in native HEK293 was in the range of 7000-9000 pmoles K^+ per mg protein per min. In the presence of 20 μM Ref 1, the flux was reduced to 600-900 pmoles K^+ per mg protein per min. Thus, there was a very solid dynamic range. In each experiment, the flux without Ref 1 was set at 1000 (equivalent to 100.0%) and the flux with 20 μM bumetanide was set at 0 (equivalent to 0%).
For the flux experiments, 35-mm culture dishes were coated with 0.1 mg/mL poly-L-lysine and placed in large 20×20 [square] dishes. For convenience, the poly-L-lysine was placed in the dishes the day before the experiment. Before plating the cells, the poly-L-lysine was aspirated, and each dish washed twice with 1 mL sterile water. Cells from 3 confluent 10-cm dishes were detached with trypsin and resuspended into 49 mL complete medium. Cells (2 mL/35-mm dish) were plated in 24 dishes and allowed to attach for at least 2 hours prior to the flux. This setup allowed the measurement of 8 conditions in triplicates. For the flux, culture medium was aspirated and replaced with 1 mL saline for a preincubation period of 15 min. The saline was aspirated and replaced with 1 mL identical saline containing 0.25 μCi/mL 83Rb for 15 min. Following the uptake period, the radioactive solution was aspirated, and the cells washed 3 times with ice-cold saline. Cells were then lyzed with 500 μl 0.25N NaOH for 1 hour, neutralized with 250 μL glacial acetic acid and 300 μL and 30 μL aliquots were used for μ-scintillation counting and protein assays, respectively. Two 5 μL of each flux solution was used to determine cpm and relate those cpm to nmoles K^+. Potassium influx was expressed in nmoles K^+ per mg protein per min. Note that within an experiment, groups of 3 dishes were separated 2 min apart for easy handling. Also note that since all dishes were plated with a homogeneous cell suspension, and all dishes were identical, the protein content was measured from a subset of dishes. […]

As to `CCCCNc1cc(C(=O)OC)cc(S(=N)(=O)N(C)CC)c1Oc1ccccc1` (centres unmarked) [Compound 5, methyl 3-(butylamino)-5-[[ethyl(methyl)amino]sulfonimidoyl]-4-phenoxy-benzoate], the inhibition at 20 µM was in the range of 50 to 75%.
In the case of `CCCCNc1cc(C(=O)OC)cc(S(=N)(=O)N2CCOCC2)c1Oc1ccccc1` (centres unmarked) [Compound 6, methyl 3-(butylamino)-5-(morpholinosulfonimidoyl)-4-phenoxy-benzoate], the inhibition at 2 µM is 10 to 30% and the inhibition at 20 µM was in the range of 30 to 50%.
Turning to `CCCCNc1cc(C(=O)OC)cc(S(=N)(=O)Nc2ccccc2)c1Oc1ccccc1` (centres unmarked) [Compound 7, methyl 3-(anilinosulfonimidoyl)-5-(butylamino)-4-phenoxy-benzoate], the inhibition at 2 µM was 10 to 30% and the inhibition at 20 µM was 50 to 75%.
The like results for `CCCCNc1cc(C(=O)OC)cc(S(=N)(=O)NCc2ccccc2)c1Oc1ccccc1` (centres unmarked) [Compound 8, methyl 3-[(benzylamino)sulfonimidoyl]-5-(butylamino)-4-phenoxy-benzoate] were, in that order, 10 to 30% and 50 to 75%.
As for `CCCCNc1cc(C(=O)OC)cc(S(=N)(=O)NCCOC)c1Oc1ccccc1` (centres unmarked) [Compound 9, methyl 3-(butylamino)-5-[(2-methoxyethylamino)sulfonimidoyl]-4-phenoxy-benzoate], the inhibition at 20 µM is 10 to 30%.
Regarding `CCCCNc1cc(C(=O)OC)cc(S(=N)(=O)NC2CC2)c1Oc1ccccc1` (centres unmarked) [Compound 10, methyl 3-(butylamino)-5-[(cyclopropylamino)sulfonimidoyl]-4-phenoxy-benzoate], the inhibition at 20 µM was in the range of 10 to 30%.
As to `CCCCNc1cc(C(=O)OC)cc(S(=N)(=O)N2CCCCCC2)c1Oc1ccccc1` (centres unmarked) [Compound 11, methyl 3-(azepan-1-ylsulfonimidoyl)-5-(butylamino)-4-phenoxy-benzoate], the inhibition at 20 µM lay within 50 to 75%.
`CCCCNc1cc(C(=O)OC)cc(S(=N)(=O)NCC2CCCCC2)c1Oc1ccccc1` (centres unmarked) [Compound 12, methyl 3-(butylamino)-5-[(cyclohexylmethylamino)sulfonimidoyl]-4-phenoxy-benzoate]: the inhibition at 2 µM lay within 10 to 30% and the inhibition at 20 µM is 30 to 50%.
Regarding `CCCCNc1cc(C(=O)OC)cc(S(=N)(=O)NCC2CCOCC2)c1Oc1ccccc1` (centres unmarked) [Compound 13, methyl 3-(butylamino)-4-phenoxy-5-[(tetrahydropyran-4-ylmethylamino)sulfonimidoyl]benzoate], the inhibition at 20 µM fell in the range of 10 to 30%.
Regarding `CCCCNc1cc(C(=O)OC)cc(S(=N)(=O)N(C)c2ccccc2)c1Oc1ccccc1` (centres unmarked) [Compound 14, methyl 3-(butylamino)-5-[(N-methylanilino)sulfonimidoyl]-4-phenoxy-benzoate], the inhibition at 2 µM was in the range of 10 to 30% and the inhibition at 20 µM lay within 10 to 30%.
As to `CCCCNc1cc(C(=O)OC)cc(S(=N)(=O)NCc2cncnc2)c1Oc1ccccc1` (centres unmarked) [Compound 15, methyl 3-(butylamino)-4-phenoxy-5-[(pyrimidin-5-ylmethylamino)sulfonimidoyl]benzoate], the inhibition at 2 µM was 30 to 50% and the inhibition at 20 µM fell in the range of 30 to 50%.
With `CCCCNc1cc(C(=O)OC)cc(S(=N)(=O)Nc2cccnc2)c1Oc1ccccc1` (centres unmarked) [Compound 16, methyl 3-(butylamino)-4-phenoxy-5-[(3-pyridylamino)sulfonimidoyl]benzoate], the inhibition at 2 µM was in the range of 30 to 50% and the inhibition at 20 µM fell in the range of 10 to 30%.
The matching figures for `CCCCNc1cc(C(=O)OC)cc(S(=N)(=O)Nc2cccc(OC)c2)c1Oc1ccccc1` (centres unmarked) [Compound 17, methyl 3-(butylamino)-5-[(3-methoxyanilino)sulfonimidoyl]-4-phenoxy-benzoate]: 10 to 30% and 30 to 50%.
The like results for `CCCCNc1cc(C(=O)OC)cc(S(=N)(=O)N2CCC(c3ccccc3)CC2)c1Oc1ccccc1` (centres unmarked) [Compound 18, methyl 3-(butylamino)-4-phenoxy-5-[(4-phenyl-1-piperidyl)sulfonimidoyl]benzoate] were, in that order, 30 to 50% and 10 to 30%.
The like results for `CCCCNc1cc(C(=O)OC)cc(S(=N)(=O)N2CCc3ccccc32)c1Oc1ccccc1` (centres unmarked) [Compound 19, methyl 3-(butylamino)-5-(indolin-1-ylsulfonimidoyl)-4-phenoxy-benzoate] were, in that order, 30 to 50% and 10 to 30%.
Take `CCCCNc1cc(C(=O)OC)cc(S(=N)(=O)N2CC3CCC(C2)O3)c1Oc1ccccc1` (centres unmarked) [Compound 20, methyl 3-(butylamino)-5-(8-oxa-3-azabicyclo[3.2.1]octan-3-ylsulfonimidoyl)-4-phenoxy-benzoate]: the inhibition at 20 µM was 10 to 30%.
On to `CCCCNc1cc(C(=O)OC)cc(S(=N)(=O)Nc2ccn(C)n2)c1Oc1ccccc1` (centres unmarked) [Compound 21, methyl 3-(butylamino)-5-[[(1-methylpyrazol-3-yl)amino]sulfonimidoyl]-4-phenoxy-benzoate], for which the inhibition at 2 µM lay within 10 to 30% and the inhibition at 20 µM lay within 30 to 50%.
Regarding `CCCCNc1cc(C(=O)OC)cc(S(=N)(=O)Nc2cccc(Cl)c2)c1Oc1ccccc1` (centres unmarked) [Compound 22, methyl 3-(butylamino)-5-[(3-chloroanilino)sulfonimidoyl]-4-phenoxy-benzoate], the inhibition at 2 µM was 30 to 50% and the inhibition at 20 µM fell in the range of 30 to 50%.
Consider `CCCCNc1cc(C(=O)OC)cc(S(=N)(=O)NCc2cccc(Cl)c2)c1Oc1ccccc1` (centres unmarked) [Compound 23, methyl 3-(butylamino)-5-[[(3-chlorophenyl)methylamino]sulfonimidoyl]-4-phenoxy-benzoate], for which the inhibition at 2 µM lay in the range of 30 to 50% and the inhibition at 20 µM was in the range of 10 to 30%.
